Measured values from PubChem BioAssay (NCI).
Values joined by “and” are separate entries in the source; they are usually repeats but may differ in a detail not shown here. Equal entries are not always repeated.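 All cell lines were grown in 96-well plates and treated with compound for 48 hours. At the GI50, growth is halved. TGI marks complete inhibition of growth.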

How the values were obtained:
Experiment in all cases: NCI tumour cell line growth inhibition, 48 h; in the data active = GI50 below about 0.43 µM; inactive = the rest
786-0 renal = test system: 786-0 renal
A498 renal = test system: A498 renal
A549 NSCLC = test system: A549 NSCLC
ACHN renal = test system: ACHN renal
BT-549 breast = test system: BT-549 breast
CAKI-1 renal = test system: CAKI-1 renal
CCRF-CEM leukemia = test system: CCRF-CEM leukemia
COLO 205 colon = test system: COLO 205 colon
DU-145 prostate = test system: DU-145 prostate
EKVX NSCLC = test system: EKVX NSCLC
HCT-116 colon = test system: HCT-116 colon
HCT-15 colon = test system: HCT-15 colon
HL-60(TB) leukemia = test system: HL-60(TB) leukemia
HOP-62 NSCLC = test system: HOP-62 NSCLC
HS 578T breast = test system: HS 578T breast
HT29 colon = test system: HT29 colon
IGROV1 ovarian = test system: IGROV1 ovarian
K-562 leukemia = test system: K-562 leukemia
KM12 colon = test system: KM12 colon
M14 melanoma = test system: M14 melanoma
MCF7 breast = test system: MCF7 breast
MDA-MB-231 breast = test system: MDA-MB-231 breast
MDA-MB-435 = test system: MDA-MB-435
MDA-N = test system: MDA-N
MOLT-4 leukemia = test system: MOLT-4 leukemia
NCI-H226 lung = test system: NCI-H226 lung
NCI-H23 lung = test system: NCI-H23 lung
NCI-H460 lung = test system: NCI-H460 lung
NCI/ADR-RES ovarian = test system: NCI/ADR-RES ovarian
OVCAR-3 ovarian = test system: OVCAR-3 ovarian
OVCAR-5 ovarian = test system: OVCAR-5 ovarian
OVCAR-8 ovarian = test system: OVCAR-8 ovarian
PC-3 prostate = test system: PC-3 prostate
RPMI-8226 leukemia = test system: RPMI-8226 leukemia
RXF 393 renal = test system: RXF 393 renal
SF-268 CNS = test system: SF-268 CNS
SF-295 CNS = test system: SF-295 CNS
SF-539 CNS = test system: SF-539 CNS
SK-MEL-2 melanoma = test system: SK-MEL-2 melanoma
SK-MEL-28 melanoma = test system: SK-MEL-28 melanoma
SK-MEL-5 melanoma = test system: SK-MEL-5 melanoma
SN12C renal = test system: SN12C renal
SNB-19 CNS = test system: SNB-19 CNS
SNB-75 CNS = test system: SNB-75 CNS
SR leukemia = test system: SR leukemia
SW-620 colon = test system: SW-620 colon
T-47D breast = test system: T-47D breast
TK-10 renal = test system: TK-10 renal
U251 CNS = test system: U251 CNS
UACC-257 melanoma = test system: UACC-257 melanoma
UACC-62 melanoma = test system: UACC-62 melanoma
UO-31 renal = test system: UO-31 renal
KM20L2 colon = test system: KM20L2 colon
XF 498 CNS = test system: XF 498 CNS
HCC-2998 colon = test system: HCC-2998 colon
HOP-92 NSCLC = test system: HOP-92 NSCLC
LOX IMVI melanoma = test system: LOX IMVI melanoma
MALME-3M melanoma = test system: MALME-3M melanoma
NCI-H522 lung = test system: NCI-H522 lung
OVCAR-4 ovarian = test system: OVCAR-4 ovarian
SK-OV-3 ovarian = test system: SK-OV-3 ovarian

C=CCSc1nn(CC=C)cc2ncnc1-2
> 100 µM: TGI (786-0 renal) | TGI (A498 renal) | TGI (A549 NSCLC) | TGI (ACHN renal) | TGI (BT-549 breast) | TGI (CAKI-1 renal) | TGI (CCRF-CEM leukemia) | TGI (COLO 205 colon) | TGI (DU-145 prostate) | TGI (EKVX NSCLC) | TGI (HCT-116 colon) | TGI (HCT-15 colon) | TGI (HL-60(TB) leukemia) | TGI (HOP-62 NSCLC) | TGI (HS 578T breast) | TGI (HT29 colon) | TGI (IGROV1 ovarian) | TGI (K-562 leukemia) | TGI (KM12 colon) | TGI (M14 melanoma) | TGI (MCF7 breast) | TGI (MDA-MB-231 breast) | TGI (MDA-MB-435) | TGI (MDA-N) | TGI (MOLT-4 leukemia) | TGI (NCI-H226 lung) | TGI (NCI-H23 lung) | TGI (NCI-H460 lung) | TGI (NCI/ADR-RES ovarian) | TGI (OVCAR-3 ovarian) | TGI (OVCAR-5 ovarian) | TGI (OVCAR-8 ovarian) | TGI (PC-3 prostate) | TGI (RPMI-8226 leukemia) | TGI (RXF 393 renal) | TGI (SF-268 CNS) | TGI (SF-295 CNS) | TGI (SF-539 CNS) | TGI (SK-MEL-2 melanoma) | TGI (SK-MEL-28 melanoma) | TGI (SK-MEL-5 melanoma) | TGI (SN12C renal) | TGI (SNB-19 CNS) | TGI (SNB-75 CNS) | TGI (SR leukemia) | TGI (SW-620 colon) | TGI (T-47D breast) | TGI (TK-10 renal) | TGI (U251 CNS) | TGI (UACC-257 melanoma) | TGI (UACC-62 melanoma) | TGI (UO-31 renal)

CO[C@H](/C(C)=C/C=C/C(C)=C/c1coc(C)n1)[C@H](C)[C@H]1C[C@@H](O)[C@@]2(C)O[C@H]2/C=C/[C@@H](C)[C@@H]2C[C@@H](CC(=O)O2)C[C@H]2O[C@@H]2C(=O)O1
0.0005 µM: TGI (KM20L2 colon)
active: GI50 (786-0 renal) 0.106 pM | GI50 (BT-549 breast) 0.0133 nM | GI50 (M14 melanoma) 0.1 pM | GI50 (MDA-MB-231 breast) 0.942 pM | GI50 (TK-10 renal) 0.042 µM
2.25 µM and 0.576 µM: TGI (XF 498 CNS)
2.81 µM: TGI (BT-549 breast)
> 100 µM: TGI (SR leukemia)
2.15e-06 µM: TGI (MDA-N)
3.99 µM and 31 µM and > 31.6 µM: TGI (OVCAR-5 ovarian)
2.37e-06 µM: TGI (PC-3 prostate)
5 µM and 50 µM and 11.4 µM: TGI (UACC-257 melanoma)
> 69.5 µM: TGI (TK-10 renal)
> 64 µM: TGI (ACHN renal)

CC(C)C1OCC(CO)CO1 (centres undefined)
> 100 µM: TGI (786-0 renal) | TGI (A498 renal) | TGI (A549 NSCLC) | TGI (ACHN renal) | TGI (BT-549 breast) | TGI (CAKI-1 renal) | TGI (CCRF-CEM leukemia) | TGI (COLO 205 colon) | TGI (DU-145 prostate) | TGI (EKVX NSCLC) | TGI (HCC-2998 colon) | TGI (HCT-116 colon) | TGI (HCT-15 colon) | TGI (HL-60(TB) leukemia) | TGI (HOP-62 NSCLC) | TGI (HOP-92 NSCLC) | TGI (HS 578T breast) | TGI (HT29 colon) | TGI (KM12 colon) | TGI (LOX IMVI melanoma) | TGI (M14 melanoma) | TGI (MALME-3M melanoma) | TGI (MCF7 breast) | TGI (MDA-MB-231 breast) | TGI (MDA-MB-435) | TGI (MDA-N) | TGI (MOLT-4 leukemia) | TGI (NCI-H226 lung) | TGI (NCI-H23 lung) | TGI (NCI-H460 lung) | TGI (NCI-H522 lung) | TGI (NCI/ADR-RES ovarian) | TGI (OVCAR-3 ovarian) | TGI (OVCAR-4 ovarian) | TGI (OVCAR-5 ovarian) | TGI (OVCAR-8 ovarian) | TGI (PC-3 prostate) | TGI (RPMI-8226 leukemia) | TGI (RXF 393 renal) | TGI (SF-268 CNS) | TGI (SF-295 CNS) | TGI (SF-539 CNS) | TGI (SK-MEL-2 melanoma) | TGI (SK-MEL-28 melanoma) | TGI (SK-MEL-5 melanoma) | TGI (SK-OV-3 ovarian) | TGI (SN12C renal) | TGI (SNB-19 CNS) | TGI (SNB-75 CNS) | TGI (SR leukemia) | TGI (SW-620 colon) | TGI (T-47D breast) | TGI (TK-10 renal) | TGI (U251 CNS) | TGI (UACC-257 melanoma) | TGI (UACC-62 melanoma) | TGI (UO-31 renal)
